Test results from publication PMC10041525, “New Dual Inhibitors of Bacterial Topoisomerases with Broad-Spectrum Antibacterial Activity and In Vivo Efficacy against Vancomycin-Intermediate Staphylococcus aureus” (Journal of Medicinal Chemistry, 2023).
Converted amounts (≈) assume the structure as drawn. “And” between values parts separate entries of the source, which are not always exact repeats. Equal entries are not always repeated. Where two headings read alike, the source gives them in different places.

Key:
S. aureus ATCC 29213 = assay: MIC broth microdilution (CLSI); format: cell-based
Method in brief: (§1)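 Cation-adjusted Mueller Hinton broth 2 microdilution, 5 × 10^4 cells per well in 100 μL, three parallel replicates, plates bagged to limit evaporation; growth read as OD600 after incubation.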

physchem = format: physicochemical
Method: For the PBS, 2.38 g of disodium hydrogen phosphate dodecahydrate, 0.19 g of potassium dihydrogen phosphate, and 8.0 g of sodium chloride were added to distilled water (900 mL), and the solution was mixed overnight. […] Samples were prepared by weighing the exact mass of solid compounds (about 1 mg), and then, the appropriate volume of PBS was added to reach the final concentration of ∼1 mg/mL. […] The supernatant was diluted 3× with a 1:1 mixture of 0.1% TFA in water and acetonitrile and analyzed by HPLC. For the 7-point calibration curves, concentrated stock solutions of the compounds were prepared at concentrations of 10 and 0.5 mM in DMSO, which were diluted with a 1:1 mixture of 0.1% TFA in water and acetonitrile to the desired final concentrations and analyzed by HPLC. Results are given in μM as an average value of two independent experiments. For details on calibration curves, concentrations, analytical method, and HPLC method, see the Supporting Information.
Thermodynamic solubility assay
To determine thermodynamic solubility of compounds in PBS, calibration curves for the assayed compounds were prepared using seven concentrations. First, DMSO stock solutions of compounds at 10 mM and 0.5 mM concentration were prepared and then diluted (0.1% TFA in […]
Quality control (QC) samples were diluted from stock solutions with a 1:1 mixture of 0.1% TFA in water and acetonitrile to final concentrations of 60 µM, 20 µM, and 2 µM (6 µM, 2 µM, and 0.2 µM for 7f or 0.6 µM, 0.2 µM, and 0.02 µM for 7g).
Analytical reversed-phase UHPLC analyses were performed on Thermo Scientific Dionex UltiMate 3000 modular system (Thermo Fisher Scientific Inc., MA, USA). Waters Acquity UPLC® HSS C18 SB column (2.1 × 50 mm, 1.8 μm; Waters, Milford, MA, USA) was used at T […]
Mobile phase consisted of 0.1% trifluoroacetic acid in ultrapure water (solvent A) and acetonitrile […]
The obtained data was processed in Chromeleon CDS software (Thermo Fisher Scientific Inc., […]
Analytical method was tested for accuracy, precision and linear rang. Accuracy was […]
(or 2 or 0.2) µM and 60 (or 6 or 0.6) µM) to their true values and expressed in (%). Values were […]
Method repeatability was determined by calculating the RSD from the separately prepared and analysed quality control samples (n = 3). […] Linearity of the […]
method (1 (or 0.1 or 0.01) µM to 100 (or 10 or 1) µM) was evaluated from the 7-point calibration […]
Solubility was determined in two independent experiments and results were calculated in […]

DNA gyrase from E. coli = biological target: T1, DNA gyrase from E. coli (Escherichia coli, UniProt P0AES6); assay: supercoiling HTS plate assay; format: biochemical
T1 construct: purchased Inspiralis
Method in brief: (§2)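 E. coli gyrase tested by supercoiling and topo IV by relaxation in high-throughput plate format. IC50 from seven inhibitor concentrations; mean of three independent measurements.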

[1] = tested on: Enterococcus faecalis ATCC 29212; assay: MIC broth microdilution (CLSI); format: cell-based, E. faecalis; conditions: Enterococcus faecalis, ATCC29212
A. baumannii ATCC 17978 = assay: MIC broth microdilution (CLSI); format: cell-based; conditions: Acinetobacter baumannii, ATCC17978
Method in brief: as §1

topo IV from E. coli = biological target: T2, topo IV from E. coli (Escherichia coli, UniProt P20083); assay: relaxation HTS plate assay; format: biochemical
T2 construct: purchased Inspiralis
Method in brief: as §2

[2] = Staphylococcus aureus, ATCC29213
[3] = pH 7.4, thermodynamic solubility (pH = 7.4)
[4] = Staphylococcus aureus, ATCC29213; read-out: MIC
[5] = Staphylococcus aureus, ATCC29213; read-out: MIC [µg/mL](S. aureus ATCC 29213)
[6] = read-out: MIC [µg/mL] (A. baumannii ATCC 17978)
[7] = phosphate-buffered saline (PBS), pH 7.4, PBS pH 7.4, read-out: thermodynamic solubility, Experiment 1
[8] = phosphate-buffered saline (PBS), pH 7.4, PBS pH 7.4, read-out: thermodynamic solubility, Experiment 2
[9] = phosphate-buffered saline (PBS), pH 7.4, thermodynamic solubility (pH = 7.4), PBS, 37 °C, 24 h, mean of two

T2 sequence (P0AFI2 whole entry): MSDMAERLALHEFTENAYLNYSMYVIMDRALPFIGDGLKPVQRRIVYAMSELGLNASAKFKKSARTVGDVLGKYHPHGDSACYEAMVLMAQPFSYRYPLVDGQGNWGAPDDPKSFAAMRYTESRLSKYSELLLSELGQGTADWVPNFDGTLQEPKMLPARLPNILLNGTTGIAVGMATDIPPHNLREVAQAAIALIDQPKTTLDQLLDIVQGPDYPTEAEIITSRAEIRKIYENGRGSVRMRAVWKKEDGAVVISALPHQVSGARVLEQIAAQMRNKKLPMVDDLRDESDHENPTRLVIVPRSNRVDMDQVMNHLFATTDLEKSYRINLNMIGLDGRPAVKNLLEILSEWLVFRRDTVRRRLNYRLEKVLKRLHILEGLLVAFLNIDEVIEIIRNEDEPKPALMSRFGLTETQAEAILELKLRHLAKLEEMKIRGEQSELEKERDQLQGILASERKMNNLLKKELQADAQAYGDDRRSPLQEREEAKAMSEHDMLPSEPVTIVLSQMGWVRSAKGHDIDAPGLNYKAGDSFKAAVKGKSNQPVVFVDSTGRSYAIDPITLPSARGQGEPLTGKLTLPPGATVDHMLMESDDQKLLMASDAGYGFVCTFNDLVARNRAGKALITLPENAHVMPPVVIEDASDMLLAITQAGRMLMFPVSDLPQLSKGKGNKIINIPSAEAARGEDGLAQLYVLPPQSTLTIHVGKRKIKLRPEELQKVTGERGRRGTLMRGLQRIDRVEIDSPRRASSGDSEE
T2 sequence (P20083 whole entry): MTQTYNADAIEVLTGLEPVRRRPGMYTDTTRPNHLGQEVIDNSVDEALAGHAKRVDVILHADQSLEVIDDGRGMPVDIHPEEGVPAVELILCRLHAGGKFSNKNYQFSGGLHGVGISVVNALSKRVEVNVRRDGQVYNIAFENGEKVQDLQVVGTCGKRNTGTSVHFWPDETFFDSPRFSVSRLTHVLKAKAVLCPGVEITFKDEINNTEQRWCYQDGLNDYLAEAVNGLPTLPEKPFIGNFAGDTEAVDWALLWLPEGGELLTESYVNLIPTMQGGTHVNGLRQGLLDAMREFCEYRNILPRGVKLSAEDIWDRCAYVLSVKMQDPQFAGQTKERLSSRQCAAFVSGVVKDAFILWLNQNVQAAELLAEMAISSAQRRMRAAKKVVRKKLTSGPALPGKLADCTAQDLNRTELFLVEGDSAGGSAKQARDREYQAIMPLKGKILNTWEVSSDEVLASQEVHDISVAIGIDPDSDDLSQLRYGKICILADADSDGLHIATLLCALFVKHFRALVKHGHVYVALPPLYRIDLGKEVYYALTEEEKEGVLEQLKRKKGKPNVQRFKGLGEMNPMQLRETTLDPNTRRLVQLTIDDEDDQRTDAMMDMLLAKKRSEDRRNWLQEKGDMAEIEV

Compound	IC50 (DNA gyrase from E. coli; read-out: IC50) [nM]	MIC (S. aureus ATCC 29213; [4]) [µg/mL]	MIC (S. aureus ATCC 29213; [5]) [µg/mL]	MIC (A. baumannii ATCC 17978; read-out: MIC) [µg/mL]	MIC (A. baumannii ATCC 17978; [6]) [µg/mL]	solubility thermodynamic at 24 h (physchem; [7]) [µM]	solubility thermodynamic at 24 h (physchem; [8]) [µM]	solubility thermodynamic at 24 h (physchem; [9]) [µM]	solubility thermodynamic at 48 h (physchem; [9]) [µM]	IC50 (topo IV from E. coli; read-out: IC50) [µM]	MIC ([1]; read-out: MIC) [mg/L]	thermodynamic solubility (pH = 7.4) (physchem; PBS, 37 °C, 24 h, mean of two)	IC50 (DNA gyrase from E. coli; IC50 [nM] E. coli DNA gyrase) [nM]	other results
Cc1[nH]c(C(=O)Nc2nc3c(N4CCOCC4)cc(C(=O)O)cc3s2)c(Cl)c1Cl [7a, 2-(3,4-Dichloro-5-methyl-1H-pyrrole-2-carboxamido)-4-morpholinobenzo[d]thiazole-6-carboxylic Acid]	< 10	–	–	–	–	–	–	–	–	–	–	–	–	MIC (S. aureus ATCC 29213; [2]): 0.25 µg/mL; MIC (S. aureus ATCC 29213; Staphylococcus aureus, ATCC29213, read-out: MIC [µg/mL](S. aureus ATCC 29213)): 0.25 µg/mL; solubility thermodynamic (physchem; pH 7.4, PBS pH 7.4, read-out: thermodynamic solubility, Experiment 1): 100 µM (≈ 45.5 µg/mL); solubility thermodynamic (physchem; pH 7.4, PBS pH 7.4, read-out: thermodynamic solubility, Experiment 2): 96.6 µM (≈ 44 µg/mL); solubility thermodynamic (physchem; [3]): 98.3 µM (≈ 44.8 µg/mL); solubility thermodynamic at 48 h (physchem; [3]): 98 µM (≈ 44.6 µg/mL); MIC [1]: < 0.0312 mg/L
Cc1[nH]c(C(=O)Nc2nc3c(N4CCOCC4C)cc(C(=O)O)cc3s2)c(Cl)c1Cl (stereo not drawn) [7b, 2-(3,4-Dichloro-5-methyl-1H-pyrrole-2-carboxamido)-4-(3-methylmorpholino)benzo[d]thiazole-6-carboxylic Acid]	< 10	0.125	0.125	4	4	59.6 (≈ 28 µg/mL)	76.6 (≈ 36 µg/mL)	68.1 (≈ 32 µg/mL)	68 (≈ 31.9 µg/mL)	0.078 ± 0.004	< 0.0312	–	–	–
Cc1[nH]c(C(=O)Nc2nc3c(N4CCOC[C@H]4C)cc(C(=O)O)cc3s2)c(Cl)c1Cl [7c, (R)-2-(3,4-Dichloro-5-methyl-1H-pyrrole-2-carboxamido)-4-(3-methylmorpholino)benzo[d]thiazole-6-carboxylic Acid]	17 ± 8	0.0625	0.0625	8	8	8.67 (≈ 4.07 µg/mL)	11.6 (≈ 5.44 µg/mL)	10.1 (≈ 4.74 µg/mL)	–	0.06 ± 0.036	< 0.0312	10.14 µM	30 ± 9	–
Cc1[nH]c(C(=O)Nc2nc3c(N4CCOC[C@@H]4C)cc(C(=O)O)cc3s2)c(Cl)c1Cl [7d, (S)-2-(3,4-Dichloro-5-methyl-1H-pyrrole-2-carboxamido)-4-(3-methylmorpholino)benzo[d]thiazole-6-carboxylic Acid]	–	0.125	0.125	8	8	5.6 (≈ 2.63 µg/mL)	6.07 (≈ 2.85 µg/mL)	5.8 (≈ 2.72 µg/mL)	–	0.095 ± 0.004	< 0.0312	5.84 µM	23	IC50 (DNA gyrase from E. coli; IC50): 18 ± 7 nM
Cc1[nH]c(C(=O)Nc2nc3c(N4CCOC(C)C4)cc(C(=O)O)cc3s2)c(Cl)c1Cl (stereo not drawn) [7e, 2-(3,4-Dichloro-5-methyl-1H-pyrrole-2-carboxamido)-4-(2-methylmorpholino)benzo[d]thiazole-6-carboxylic Acid]	< 10	0.0625	0.0625	8	8	71.9 (≈ 33.7 µg/mL)	88.8 (≈ 41.7 µg/mL)	80.4 (≈ 37.7 µg/mL)	80 (≈ 37.5 µg/mL)	0.091 ± 0.003	< 0.0312	80.35 µM	–	–
Cc1[nH]c(C(=O)Nc2nc3c(N4CC(C)OC(C)C4)cc(C(=O)O)cc3s2)c(Cl)c1Cl (stereo not drawn) [7f, 2-(3,4-Dichloro-5-methyl-1H-pyrrole-2-carboxamido)-4-(2,6-dimethylmorpholino)benzo[d]thiazole-6-carboxylic Acid]	< 10	< 0.0312	< 0.0312	1	1	0.95 (≈ 0.459 µg/mL)	0.89 (≈ 0.43 µg/mL)	0.92 (≈ 0.445 µg/mL)	–	0.082 ± 0.029	< 0.0312	–	–	–
Cc1[nH]c(C(=O)Nc2nc3c(N4C[C@H]5CC[C@@H](C4)O5)cc(C(=O)O)cc3s2)c(Cl)c1Cl [7g, 4-((1R,5S)-8-Oxa-3-azabicyclo[3.2.1]octan-3-yl)-2-(3,4-dichloro-5-methyl-1H-pyrrole-2-carboxamido)benzo[d]thiazole-6-carboxylic Acid]	< 10	< 0.0312	< 0.0312	1	1	0.33 (≈ 0.159 µg/mL)	0.19 (≈ 0.0915 µg/mL)	–	0.26 (≈ 0.125 µg/mL)	0.016 ± 0.008	< 0.0312	–	–	–
Cc1[nH]c(C(=O)Nc2nc3c(N4[C@@H]5CC[C@H]4COC5)cc(C(=O)O)cc3s2)c(Cl)c1Cl [7h, 4-((1R,5S)-3-Oxa-8-azabicyclo[3.2.1]octan-8-yl)-2-(3,4-dichloro-5-methyl-1H-pyrrole-2-carboxamido)benzo[d]thiazole-6-carboxylic Acid]	13 ± 1	< 0.0312	< 0.0312	2	2	–	–	–	–	–	< 0.0312	–	16 ± 6	solubility thermodynamic at 24 h (physchem; [3]): 3.8 µM (≈ 1.83 µg/mL); solubility thermodynamic at 24 h (physchem; pH 7.4, thermodynamic solubility, Experiment 1): 3.83 µM (≈ 1.84 µg/mL); solubility thermodynamic at 24 h (physchem; pH 7.4, thermodynamic solubility, Experiment 2): 3.8 µM (≈ 1.83 µg/mL)
Cc1[nH]c(C(=O)Nc2nc3c(N4CCOC(C(F)(F)F)C4)cc(C(=O)O)cc3s2)c(Cl)c1Cl (stereo not drawn) [7i, 2-(3,4-Dichloro-5-methyl-1H-pyrrole-2-carboxamido)-4-(2-(trifluoromethyl)morpholino)benzo[d]thiazole-6-carboxylic Acid]	< 10	–	–	–	–	10.7 (≈ 5.57 µg/mL)	–	10.7 (≈ 5.6 µg/mL)	11 (≈ 5.76 µg/mL)	–	–	–	–	MIC (S. aureus ATCC 29213; [2]): < 0.0312 µg/mL; MIC (A. baumannii ATCC 17978): 4 µg/mL; IC50 (topo IV from E. coli; IC50): 0.063 ± 0.001 µM; MIC [1]: < 0.0312 mg/L
COCC1CCCN1c1cc(C(=O)O)cc2sc(NC(=O)c3[nH]c(C)c(Cl)c3Cl)nc12 (stereo not drawn) [7n, 2-(3,4-Dichloro-5-methyl-1H-pyrrole-2-carboxamido)-4-(2-(methoxymethyl)pyrrolidin-1-yl)benzo[d]thiazole-6-carboxylic Acid]	–	0.0625	0.0625	8	8	11 (≈ 5.31 µg/mL)	11.4 (≈ 5.49 µg/mL)	11.2 (≈ 5.41 µg/mL)	–	0.21 ± 0.007	< 0.0312	11.18 µM	14 ± 6	–
COC[C@@H]1CCCN1c1cc(C(=O)O)cc2sc(NC(=O)c3[nH]c(C)c(Cl)c3Cl)nc12 [7o, (S)-2-(3,4-Dichloro-5-methyl-1H-pyrrole-2-carboxamido)-4-(2-(methoxymethyl)pyrrolidin-1-yl)benzo[d]thiazole-6-carboxylic Acid]	–	0.0625	0.0625	16	16	10.6 (≈ 5.12 µg/mL)	11.4 (≈ 5.5 µg/mL)	11 (≈ 5.32 µg/mL)	–	0.28 ± 0.014	< 0.0312	10.98 µM	25	–
Cc1[nH]c(C(=O)Nc2nc3c(N4CCC(O)CC4)cc(C(=O)O)cc3s2)c(Cl)c1Cl [7p, 2-(3,4-Dichloro-5-methyl-1H-pyrrole-2-carboxamido)-4-(4-hydroxypiperidin-1-yl)benzo[d]thiazole-6-carboxylic Acid]	–	4	4	> 64	> 64	279 (≈ 131 µg/mL)	88.3 (≈ 41.4 µg/mL)	184 (≈ 86.4 µg/mL)	–	0.14 ± 0.003	< 0.0312	183.7 µM and 183.67 µM	< 10	–
